{
  "source": "patent US20230241229A1",
  "about": "“A SAPOGENIN POLYETHYLENE GLYCOL ESTER COMPLEX OF FORMULA-I, A COMPOSITION, PROCESS OF PREPARATION, AND APPLICATIONS THEREOF” (PHYTOSOL INDIA PRIVATE LIMITED, priority 2020, published 2023)",
  "assay": "Solubility of the compositions by adding water",
  "assay_type": "physicochemical",
  "settings": "component weight 100 mg",
  "method": "Solubility of the Compositions I, II and III are determined by adding water to the composition and control curcumin (without the Diosgenin polyethylene glycol succinate).",
  "data": [
    {"smiles": "COc1cc(/C=C/C(=O)CC(=O)/C=C/c2ccc(O)c(OC)c2)ccc1O", "note": "[Control, Curcumin]", "values": [
      {"measurement": "Water in ml require to solubilize", "result": ">1000", "unit": "mL"}
    ]}
  ]
}
